Row | melting point | SMILES
1 | 219 to 224 °C | COc1ccc(-c2cccc(C3=Nc4cc(C)c(C(F)(F)F)cc4NC(=O)C3)c2)cn1 [Example 168, 4-[3-(6-Methoxy-pyridin-3-yl)-phenyl]-7-methyl-8-trifluoromethyl-1,3-dihydro-benzo[b][1,4]diazepin-2-one]
2 | 203 °C | CCOc1cc2c(cc1C(F)(F)F)NC(=O)CC(c1cccc(-c3ccnc(CC(C)C)c3)c1)=N2 [Example 280, 4-[3-(2-Isobutyl-pyridin-4-yl)-phenyl]-7-ethoxy-8-trifluoromethyl-1,3-dihydro-benzo[b][1,4]diazepin-2-one]
3 | 210 to 215 °C | COc1ccc(-c2cccc(C3=Nc4ccc(C(F)(F)F)cc4NC(=O)C3)c2)cn1 [Example 50, 4-[3-(6-Methoxy-pyridin-3-yl)-phenyl]-8-trifluoromethyl-1,3-dihydro-benzo[b][1,4]diazepin-2-one]
4 | 224 °C | COc1ccc(-c2cccc(C3=Nc4cc(N(C)C)c(C(F)(F)F)cc4NC(=O)C3)c2)nn1 [Example 40, 7-Dimethylamino-4-[3-(6-methoxy-pyridazin-3-yl)-phenyl]-8-trifluoromethyl-1,3-dihydro-benzo[b][1,4]diazepin-2-one]
5 | 231 °C | Cc1cc2c(cc1C)NC(=O)CC(c1cccc(-c3ccncc3)c1)=N2 [Example 69, 7,8-Dimethyl-4-(3-pyridin-4-yl-phenyl)-1,3-dihydro-benzo[b][1,4]diazepin-2-one]
6 | 222 °C (dec.) | Cc1cc2c(cc1Cl)NC(=O)CC(c1cccc(-c3ccccn3)c1)=N2 [Example 45, 8-Chloro-7-methyl-4-(3-pyridin-2-yl-phenyl)-1,3-dihydro-benzo[b][1,4]diazepin-2-one]
7 | 233 °C | Cc1cc(-c2cccc(C3=Nc4cc(N5CCCC5)c(C(F)(F)F)cc4NC(=O)C3)c2)cc(C)n1 [Example 411, 4-[3-(2,6-Dimethyl-pyridin-4-yl)-phenyl]-7-pyrrolidin-1-yl-8-trifluoromethyl-1,3-dihydro-benzo[b][1,4]diazepin-2-one]
8 | 227 °C | Cc1cc(-c2cccc(C3=Nc4cc(OCC(F)(F)F)c(C(F)(F)F)cc4NC(=O)C3)c2)cc(CO)n1 [Example 405, 4-[3-(2-Hydroxymethyl-6-methyl-pyridin-4-yl)-phenyl]-7-(2,2,2-trifluoro-ethoxy)-8-trifluoromethyl-1,3-dihydro-benzo[b][1,4]diazepin-2-one]
9 | 213 to 214 °C | COCCOc1cc2c(cc1C(F)(F)F)NC(=O)CC(c1cccc(-c3cc(C)nc(C)c3)c1)=N2 [Example 243, 4-[3-(2,6-Dimethyl-pyridin-4-yl)-phenyl]-7-(2-methoxy-ethoxy)-8-trifluoromethyl-1,3-dihydro-benzo[b][1,4]diazepin-2-one]
10 | 216 °C | COCc1cc(-c2cccc(C3=Nc4cc(C)c(Cl)cc4NC(=O)C3)c2)ccn1 [Example 399, 8-Chloro-4-[3-(2-methoxymethyl-pyridin-4-yl)-phenyl]-7-methyl-1,3-dihydro-benzo[b][1,4]diazepin-2-one]
11 | 219 to 221 °C | CCCOc1cc2c(cc1C(F)(F)F)NC(=O)CC(c1cccc(-c3cccnc3)c1)=N2 [Example 215, 7-Propoxy-4-(3-pyridin-3-yl-phenyl)-8-trifluoromethyl-1,3-dihydro-benzo[b][1,4]diazepin-2-one]
12 | 251 to 252 °C | Cc1cc(-c2cccc(C3=Nc4cc(F)c(C(F)(F)F)cc4NC(=O)C3)c2)cc(C)n1 [Example 240, 4-[3-(2,6-Dimethyl-pyridin-4-yl)-phenyl]-7-fluoro-8-trifluoromethyl-1,3-dihydro-benzo[b][1,4]diazepin-2-one]
13 | 236 to 238 °C | COCCNc1nc(C)cc(-c2cccc(C3=Nc4cc(C)c(C(F)(F)F)cc4NC(=O)C3)c2)n1 [Example 324, 4-{3-[2-(2-Methoxy-ethylamino)-6-methyl-pyrimidin-4-yl]-phenyl}-7-methyl-8-trifluoromethyl-1,3-dihydro-benzo[b][1,4]diazepin-2-one]
14 | 141 °C | COCc1cc(-c2cccc(C3=Nc4cc(N(C)CC(C)C)c(C(F)(F)F)cc4NC(=O)C3)c2)ccn1 [Example 398, 7-(Isobutyl-methyl-amino)-4-[3-(2-methoxymethyl-pyridin-4-yl)-phenyl]-8-trifluoromethyl-1,3-dihydro-benzo[b][1,4]diazepin-2-one]
15 | 236 °C | Cc1cc(-c2cccc(C3=Nc4ccc(Cl)cc4NC(=O)C3)c2)cc(C)n1 [Example 118, 8-Chloro-4-[3-(2,6-dimethyl-pyridin-4-yl)-phenyl]-1,3-dihydro-benzo[b][1,4]diazepin-2-one]
16 | 192 °C | Cc1cc(-c2cccc(C3=Nc4ccccc4NC(=O)C3)c2)ccn1 [Example 71, 4-[3-(2-Methyl-pyridin-4-yl)-phenyl]-1,3-dihydro-benzo[b][1,4]diazepin-2-one]
17 | 242 °C | O=C1CC(c2cccc(-c3cnccn3)c2)=Nc2cc(OCC(F)(F)F)c(C(F)(F)F)cc2N1 [Example 112, 4-(3-Pyrazin-2-yl-phenyl)-7-(2,2,2-trifluoro-ethoxy)-8-trifluoromethyl-1,3-dihydro-benzo[b][1,4]diazepin-2-one]
18 | 209 to 210 °C | CN(C)c1cc2c(cc1C(F)(F)F)NC(=O)CC(c1cccc(-c3ccncn3)c1)=N2 [Example 298, 7-Dimethylamino-4-(3-pyrimidin-4-yl-phenyl)-8-trifluoromethyl-1,3-dihydro-benzo[b][1,4]diazepin-2-one]
19 | 166 °C | CC(C)CN(C)Cc1cc(-c2cccc(C3=Nc4cc(OCC(F)(F)F)c(C(F)(F)F)cc4NC(=O)C3)c2)ccn1 [Example 397, 4-(3-{2-[(Isobutyl-methyl-amino)-methyl]-pyridin-4-yl}-phenyl)-7-(2,2,2-trifluoro-ethoxy)-8-trifluoromethyl-1,3-dihydro-benzo[b][1,4]diazepin-2-one]
20 | 201 °C | CN(C)c1cc2c(cc1C(F)(F)F)NC(=O)CC(c1cccc(-c3ccccn3)c1)=N2 [Example 6, 7-Dimethylamino-4-(3-pyridin-2-yl-phenyl)-8-trifluoromethyl-1,3-dihydro-benzo[b][1,4]diazepin-2-one]
21 | 209 °C | CCc1cc(-c2cccc(C3=Nc4cc(OCC(F)(F)F)c(C(F)(F)F)cc4NC(=O)C3)c2)cc(C)n1 [Example 251, 4-[3-(2-Ethyl-6-methyl-pyridin-4-yl)-phenyl]-7-(2,2,2-trifluoro-ethoxy)-8-trifluoromethyl-1,3-dihydro-benzo[b][1,4]diazepin-2-one]
22 | 205 to 211 °C | Cc1cc2c(cc1C(F)(F)F)NC(=O)CC(c1cccc(-c3ccnc(C#N)c3)c1)=N2 [Example 199, 4-[3-(8-Methyl-4-oxo-7-trifluoromethyl-4,5-dihydro-3H-benzo[b][1,4]diazepin-2-yl)-phenyl]-pyridine-2-carbonitrile]
23 | 223 °C | CN(C)c1cc2c(cc1C(F)(F)F)NC(=O)CC(c1cccc(-c3ccnc(CO)c3)c1)=N2 [Example 371, 7-Dimethylamino-4-[3-(2-hydroxymethyl-pyridin-4-yl)-phenyl]-8-trifluoromethyl-1,3-dihydro-benzo[b][1,4]diazepin-2-one]
24 | 199 °C | Cc1cc2c(cc1C(F)(F)F)NC(=O)CC(c1cccc(-c3ccc(C(C)C)nc3)c1)=N2 [Example 180, 4-[3-(6-Isopropyl-pyridin-3-yl)-phenyl]-7-methyl-8-trifluoromethyl-1,3-dihydro-benzo[b][1,4]diazepin-2-one]
